Consider two compounds from EP0200211A1, “Diagnostic radiopharmaceutical compounds” (THE RESEARCH FOUNDATION OF STATE UNIVERSITY OF NEW YORK, priority 1985, dated 1986).

This series is described as follows: Autoradiogram comparison of rat brain distribution of radioactivity after intravenous injection. It counts as in vivo, Sprague-Dawley male rat. Particulars: autoradiograms at 2 and 15 minutes after injection, statement concerns the second (15 minute) autoradiogram. From the text: • Figure 1 is an autoradiogram of rat brain distribution of radioactivity two (2) minutes after intravenous injection with a radioactive compound of the prior art. • Figure 2 is an autoradiogram of rat brain distribution of radioactivity fifteen (15) minutes after intravenous injection with a radioactive compound of the prior art. • Figure 3 is an autoradiogram of rat brain distribution of radioactivity two (2) minutes after intravenous injection with a radioactive compound of the invention. • Figure 4 is an autoradiogram of rat brain distribution of radioactivity fifteen (15) minutes after intravenous injection with a radioactive compound of the invention.
Autoradiograms were made of Sprague-Dawley male rat brains of animals that were intravenously injected with 6-[N,N-diethylamino]methyl-3,3,10,10-tetramethyl-1,2-dithia-5,8-diazacylcodecane technetium-99m complex of the invention and 10,10,13,13-tetramethyl-11,12-dithia-8,15-diazaspiro-[5.9)pentadecane-technetium-99m complex of the prior art. The autoradiograms were taken at 2 and 15 minute intervals after injection.

Take `CCN(CC)CC1CNCC(C)(C)SSC(C)(C)CN1.[99Tc]` (centres unmarked) [6-[N,N-diethylamino]methyl-3,3,10,10-tetramethyl-1,2-dithia-5,8-diazacylcodecane technetium-99m complex]: the “definition of the autoradiogram of rat brain” value was “sharp definition obtained and retained”.

In the case of `CC1(C)CNCC2(CCCCC2)NCC(C)(C)SS1.[99Tc]` [10,10,13,13-tetramethyl-11,12-dithia-8,15-diaza spiro [5.9] pentadecane-technetium-99m complex], the “definition of the autoradiogram of rat brain” value is listed as “lack of clear definition”.
